Laboratory results as given in patent US11124510B2, “Alkyl chain modified imidazoquinoline TLR7/8 agonist compounds and uses thereof” (Dynavax Technologies Corporation, priority 2017, dated 2021).

How the values were obtained:
[1] = test system: serum IL-6 and IL-12p40; experiment: In vivo systemic immune activation assay: serum IL-6 and IL-12p40 by ELISA after single subcutaneous injection; design: species or system mice; conditions: for serum IL-6 / serum IL-12p40: 5 μg subcutaneously in footpad, 95% sesame oil/5% ethanol, ± SEM
Protocol: Small molecule TLR7 and TLR7/8 agonists derived from the 1H-imidazo[4,5-c]quinoline privileged template (see e.g., Imiquimod, Resiquimod) are known to rapidly distribute to the systemic compartment following intratumoral, subcutaneous, or intramuscular injection. Broad systemic distribution of these agonist compounds in wild-type mice induces TLR7-dependent cytokine responses, primarily in spleen and liver cells, which can subsequently be detected in the serum within 3-6 hours. The rapid increase in serum cytokine biomarkers (e.g., IL-6 and IL-12p40) can be used to assess the kinetics of systemic distribution of a locally administered TLR agonist.
The kinetics of distribution of pharmaceutical compositions comprised of Compound Nos. 63-00, 63-17, or 63-10 formulated in 95% sesame oil/5% ethanol (v/v) were assessed following a single subcutaneous injection in wild-type mice. All in vivo procedures were conducted in accordance with approved Institutional Animal Care and Use Committee (IACUC) protocols. The animals were housed in a facility that is accredited by the Association for Accreditation and Laboratory Animal Care (AALAC, Frederick Md.). Wild-type female BALB/c mice (15-20 gm) were obtained from Envigo (Hayward, Calif.) and acclimated for 2-3 days prior to use.
The pharmaceutical compositions were made with the three compounds, at a final concentration of 200 μg/mL, in a manner similar to that described in Example B2-1. At T=0, groups of 3 mice were anesthetized with 1% isoflurane and injected subcutaneously in the right footpad with 5 μg of each of the three compounds, or a vehicle control, in 25 uL of 95% sesame oil/5% ethanol (v/v). Then, at T=3, 6, and 24 hours, three animals from each group were anesthetized with 1% isoflurane to facilitate blood collection by cardiac puncture. Samples were processed to serum, and stored at −20° C. for further analysis.

[2] = test system: CT26 colon carcinoma; experiment: Anti-tumor efficacy of squalene oil-in-water nanoemulsion with or without AH-1 peptide in two flank CT26 colon carcinoma-bearing mice; assay type: in vivo
Protocol: The effect of repeated weekly doses of intratumorally-delivered pharmaceutical compositions comprised of Compound No. 63-10 formulated in a squalene-based oil-in-water nanoemulsion that was co-formulated with the CT-26 tumor associated AH-1 […] peptide (immunodominant epitope sequence from the endogenous retroviral gene product gp70; see e.g., Rice J, Buchan S and Stevenson F 2002 J Immunol 169:3908-3913) on injected and distal tumor growth inhibition was assessed in CT26 colon carcinoma-bearing Balb/c mice bearing tumors in 2 flanks. All in vivo procedures were conducted in accordance with approved IACUC protocols. The animals were housed in a facility that is accredited by the AALAC. Wild-type female Balb/c mice (15-20 g) were obtained from Envigo (Hayward, Calif.) and acclimated for 2-3 days prior to use.
Pharmaceutical compositions comprised of squalene-based oil-in-water nanoemulsions were made generally as described in Example B2-2. […] Right (injected) and left (distal) tumor volumes were then measured twice weekly from days 8 through day 30 with calipers, with tumor volumes calculated using the formula: length, multiplied by width, multiplied by width, divided by 2.

CCCCCCCCCCCCCC(=O)NCc1ccc(Cn2c(CCCC)nc3c(N)nc4ccccc4c32)cc1 [Compound No. 63-10, N-(4-((4-amino-2-butyl-1H-imidazo[4,5-c]quinolin-1-yl)methyl)benzyl)tetradecanamide]
serum IL-6 ([1]; 3 hours): 49 ± 32 pg/mL | serum IL-12p40 ([1]; 3 hours): 1,012±246 pg/mL | serum IL-6 ([1]; 6 hours): 33 ± 4 pg/mL | serum IL-12p40 ([1]; 6 hours): 2,179±597 pg/mL | serum IL-6 ([1]; 24 hours): 32 ± 2 pg/mL | serum IL-12p40 ([1]; 24 hours): 2,436±237 pg/mL | increase in serum cytokines ([1]; at 3, 6, or 24 hours, 5 μg subcutaneously): no detectable increase | tumor growth inhibition in the distal (left) tumor compared to the nanoemulsion vehicle control ([2]; day 23, 50 ng intratumoral days 8, 12, 16, 20): not significantly different from the vehicle control | tumor growth inhibition in the injected (right) tumor compared to the nanoemulsion vehicle control ([2]; day 27, 50 ng intratumoral days 8, 12, 16, 20): not significantly different from the vehicle control
